Experiments:
[1] = target: T1, Bone morphogenetic protein 4 (Homo sapiens, UniProt P12644); test: Inhibition of BMP4-induced phosphorylation of SMAD 1/5/8 by cytoblot cellular ELISA
T1 sequence (P12644 whole entry): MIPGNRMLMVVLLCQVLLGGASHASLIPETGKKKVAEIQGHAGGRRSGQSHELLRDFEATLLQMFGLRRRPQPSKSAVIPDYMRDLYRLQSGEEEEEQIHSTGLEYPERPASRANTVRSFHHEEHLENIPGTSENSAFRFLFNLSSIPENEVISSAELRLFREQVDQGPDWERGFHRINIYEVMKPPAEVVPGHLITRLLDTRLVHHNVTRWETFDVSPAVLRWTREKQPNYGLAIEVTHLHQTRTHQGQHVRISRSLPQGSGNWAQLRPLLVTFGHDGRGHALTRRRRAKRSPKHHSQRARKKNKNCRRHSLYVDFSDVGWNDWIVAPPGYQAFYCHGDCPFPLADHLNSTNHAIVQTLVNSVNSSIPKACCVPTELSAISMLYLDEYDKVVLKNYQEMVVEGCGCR

[2] = Tmax in male C57B16 mouse at 3.0 mg/kg, ip; assay type: ADME, organism-based; parameters: dose 3 mg/kg, route intraperitoneal; settings: in vivo
[3] = Tmax in female C57B16 mouse at 3.0 mg/kg, ip; assay type: ADME, organism-based; parameters: dose 3 mg/kg, route intraperitoneal; settings: in vivo
[4] = Half life in female C57B16 mouse at 3.0 mg/kg, ip; assay type: ADME, organism-based; parameters: dose 3 mg/kg, route intraperitoneal; settings: in vivo
[5] = Metabolic stability in mouse liver microsomes assessed as half life; assay type: ADME, Microsome
[6] = Metabolic stability in mouse liver microsomes assessed as intrinsic clearance; assay type: ADME, Microsome

| IC50 [1] [nM] | Structure (SMILES) | other results |
| --- | --- | --- |
| 450 | CN1CCN(CCOc2ccc(-c3cnc4c(-c5ccncc5)cnn4c3)cc2)CC1 | – |
| 2000 | c1cc(-c2cnn3cc(-c4ccc(OCCN5CCOCC5)cc4)cnc23)ccn1 | – |
| 500 | CCN(CC)CCOc1ccc(-c2cnc3c(-c4ccncc4)cnn3c2)cc1 | – |
| 3000 | COc1ccc(-c2cnc3c(-c4cccc5ncccc45)cnn3c2)cc1 | – |
| > 20000 | c1cc2ncc(-c3ccc(OCCN4CCCCC4)cc3)cn2n1 | – |
| 3300 | CN1CCN(CCOc2ccc(-c3cnc4c(-c5ccncc5F)cnn4c3)cc2)CC1 | – |
| 500 | COc1ccc(-c2cnc3c(-c4ccnc5cc(Cl)ccc45)cnn3c2)cc1 | – |
| 4.9 | c1ccc2c(-c3cnn4cc(-c5ccc(N6CCNCC6)cc5)cnc34)ccnc2c1 | Tmax [2]: < 5 min; Tmax [3]: < 5 min; half-life [4]: 96 min |
| > 20000 | Cc1nn2cc(-c3ccc(OCCN4CCN(C)CC4)cc3)cnc2c1-c1ccncc1 | – |
| > 20000 | COc1ccc(-c2cnc3c(-c4ccnc5ccccc45)ccn3c2)cc1 | – |
| > 20000 | COC(=O)c1cc(-c2ccnc3ccccc23)c2ncc(-c3ccc(OC)cc3)cn12 | – |
| > 20000 | COc1ccc(-c2cnc3c(-c4cnc5ccccc5c4)cnn3c2)cc1 | – |
| 350 | Clc1ccc2c(-c3cnn4cc(-c5ccc(N6CCNCC6)cc5)cnc34)ccnc2c1 | – |
| > 20000 | c1ccc(-c2cnn3cc(-c4ccc(OCCN5CCCCC5)cc4)cnc23)cc1 | – |
| 2600 | c1ccc2c(-c3ccn4cc(-c5ccc(OCCN6CCCCC6)cc5)cnc34)ccnc2c1 | – |
| 5 | c1ccc2c(-c3cnn4cc(-c5ccc(N6CCNCC6)cc5)ccc34)ccnc2c1 | – |
| 6500 | COc1ccc(-c2cnc3c(-c4ccncc4)cnn3c2)cc1 | – |
| > 20000 | c1cncc(-c2cnn3cc(-c4ccc(OCCN5CCCCC5)cc4)cnc23)c1 | – |
| 5000 | c1ccc2c(-c3cnn4cccnc34)ccnc2c1 | – |
| 10 | CN1CCN(CCOc2ccc(-c3cnc4c(-c5ccnc6ccccc56)cnn4c3)cc2)CC1 | half-life [5]: 13.3 min; microsomal CLint [6]: 104 µL/min/mg |
| 750 | c1ccc(-c2cnc3c(-c4ccnc5ccccc45)cnn3c2)cc1 | – |
| 90 | c1ccc2c(-c3cnn4cc(-c5ccc(OCCN6CCCCC6)cc5)cnc34)ccnc2c1 | – |
| 55 | COc1ccc(-c2cnc3c(-c4ccnc5ccccc45)cnn3c2)cc1 | – |
| > 20000 | COc1ccc(-c2cnc3c(-c4ccc5ncccc5c4)cnn3c2)cc1 | – |
| 150 | COc1ccc(-c2ccc3c(-c4ccnc5ccccc45)cnn3c2)cc1 | – |
| > 20000 | COc1ccc(-c2cnc3c(-c4cccc5cccnc45)cnn3c2)cc1 | – |
| 4500 | CN1CCN(CCOc2cccc(-c3cnc4c(-c5ccncc5)cnn4c3)c2)CC1 | – |
| 20000 | c1cc(-c2cnc3c(-c4ccnc5ccccc45)cnn3c2)cc(N2CCNCC2)c1 | – |
| 250 | Oc1ccc(-c2cnc3c(-c4ccnc5ccccc45)cnn3c2)cc1 | – |

| Structure (SMILES) | IC50 [1] [nM] | other results |
| --- | --- | --- |
| c1cc(-c2cnn3cc(-c4ccc(OCCN5CCCCC5)cc4)cnc23)ccn1 [DORSOMORPHIN] | 430 | – |

From ChEMBL document CHEMBL1155860, “Structure-activity relationship study of bone morphogenetic protein (BMP) signaling inhibitors” (Bioorg Med Chem Lett, 2008)
